In patent publication US10144734B2, “Substituted pyrazolo[1,5-A]pyridine compounds as RET kinase inhibitors” (Array BioPharma, Inc., priority 2016, dated 2018):

Target: HEK-293 cells expressing a Kif5b-RET fusion protein (Homo sapiens, UniProt P07949)
Assay: cell-based

Chain of HEK-293 cells expressing a Kif5b-RET fusion protein (P07949 29-1114 limits assumed): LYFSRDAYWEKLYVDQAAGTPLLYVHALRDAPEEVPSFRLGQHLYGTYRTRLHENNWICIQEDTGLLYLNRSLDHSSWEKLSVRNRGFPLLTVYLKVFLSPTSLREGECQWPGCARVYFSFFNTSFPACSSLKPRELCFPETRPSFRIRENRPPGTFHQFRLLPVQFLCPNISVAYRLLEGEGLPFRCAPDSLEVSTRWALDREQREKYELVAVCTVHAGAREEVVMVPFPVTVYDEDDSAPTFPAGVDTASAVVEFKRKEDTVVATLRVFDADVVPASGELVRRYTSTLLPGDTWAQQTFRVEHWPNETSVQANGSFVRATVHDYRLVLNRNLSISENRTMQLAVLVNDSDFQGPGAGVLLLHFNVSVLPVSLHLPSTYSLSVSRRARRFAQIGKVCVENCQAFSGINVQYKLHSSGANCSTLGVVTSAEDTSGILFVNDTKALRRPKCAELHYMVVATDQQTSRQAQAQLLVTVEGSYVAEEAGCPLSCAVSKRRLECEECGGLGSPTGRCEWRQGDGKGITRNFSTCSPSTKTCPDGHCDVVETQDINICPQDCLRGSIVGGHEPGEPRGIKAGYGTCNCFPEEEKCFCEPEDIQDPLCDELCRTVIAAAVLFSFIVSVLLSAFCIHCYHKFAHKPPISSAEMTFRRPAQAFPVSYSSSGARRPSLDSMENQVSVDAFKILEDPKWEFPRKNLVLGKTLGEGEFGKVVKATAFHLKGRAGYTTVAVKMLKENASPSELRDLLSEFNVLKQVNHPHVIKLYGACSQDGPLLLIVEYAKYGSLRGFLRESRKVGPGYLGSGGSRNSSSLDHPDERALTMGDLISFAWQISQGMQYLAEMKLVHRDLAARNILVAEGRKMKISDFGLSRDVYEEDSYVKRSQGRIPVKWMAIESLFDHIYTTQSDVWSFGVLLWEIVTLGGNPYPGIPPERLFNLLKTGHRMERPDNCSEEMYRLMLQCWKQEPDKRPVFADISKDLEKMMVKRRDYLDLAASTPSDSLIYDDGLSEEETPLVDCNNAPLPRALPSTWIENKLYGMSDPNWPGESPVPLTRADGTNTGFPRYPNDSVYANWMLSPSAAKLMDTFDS

## CCOc1cc(-c2ccc(N3C[C@H]4C[C@@H](C3)[C@H]4Nc3nc(C)ccc3F)nc2)c2c(C#N)cnn2c1 [Example 377, 6-ethoxy-4-(6-((1R,5 S,6r)-6-((3-fluoro-6-methylpyridin-2-yl)amino)-3-azabicyclo[3.1.1]heptan-3-yl)pyridin-3-yl)pyrazolo[1,5-a]pyridine-3-carbonitrile]
  IC50: 39.4 nM
